Source: ChEMBL document CHEMBL1201862, “PubChem BioAssay data set” (2004)
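Results reflect a 48-hour exposure of cells in 96-well plates to compound at five concentrations. The concentration for 50% growth inhibition is given as GI50.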 Active and inactive are the calls of the source. No stated cut-off is given here; in the data, active = GI50 up to about 1.1 µM and inactive = higher.

Assays:
Assay in all cases: NCI tumour cell line growth inhibition, 48 h
K562 = tested on: K562
OVCAR-8 = tested on: OVCAR-8
SNB-75 = tested on: SNB-75
HCT-116 = tested on: HCT-116
NCI-H23 = tested on: NCI-H23
NCI-H226 = tested on: NCI-H226
Malme-3M = tested on: Malme-3M
UACC-62 = tested on: UACC-62
HCT-15 = tested on: HCT-15
NCI-H522 = tested on: NCI-H522
EKVX = tested on: EKVX
SF-539 = tested on: SF-539
NCI-H460 = tested on: NCI-H460
CCRF-CEM = tested on: CCRF-CEM
SF-295 = tested on: SF-295
HL-60 = tested on: HL-60

Question: For `CCOC(=O)Cn1c(=O)n(C)c(=O)c2c1ncn2Cc1ccccc1`, which GI50 (K562) is on record?
Answer: Its GI50 is > 100 µM (inactive).

Question: What about the GI50 (OVCAR-8) of the same compound?
Answer: The GI50 was > 100 µM (inactive).

Question: What about the GI50 (SNB-75) of the same compound?
Answer: The GI50 was > 100 µM (inactive).

Question: What about the GI50 (HCT-116) of the same compound?
Answer: Its GI50 is > 100 µM (inactive).

Question: And the GI50 (NCI-H23)?
Answer: Its GI50 is > 100 µM (inactive).

Question: And the GI50 (NCI-H226)?
Answer: Its GI50 is > 100 µM (inactive).

Question: What about the GI50 (Malme-3M) of the same compound?
Answer: Its GI50 is > 100 µM (inactive).

Question: What about the GI50 (UACC-62) of the same compound?
Answer: Its GI50 is > 100 µM (inactive).

Question: And the GI50 (HCT-15)?
Answer: Its GI50 is greater than 100 µM.

Question: What about the GI50 (NCI-H522) of the same compound?
Answer: Its GI50 is > 100 µM (inactive).

Question: What about the GI50 (EKVX) of the same compound?
Answer: Its GI50 is > 100 µM (inactive).

Question: And the GI50 (SF-539)?
Answer: Its GI50 is > 100 µM (inactive).

Question: What about the GI50 (NCI-H460) of the same compound?
Answer: The GI50 was > 100 µM (inactive).

Question: What about the GI50 (CCRF-CEM) of the same compound?
Answer: The GI50 was > 100 µM (inactive).

Question: Which results are given for `CC(Oc1ccc(OCC2CCCCC2)cc1)C(=O)NCCO` (stereo not given)?
Answer: GI50 (K562): > 100 µM (inactive); GI50 (SF-295): 23.4 µM (inactive); GI50 (OVCAR-8): > 100 µM (inactive); GI50 (HL-60): > 100 µM (inactive); GI50 (SNB-75): > 100 µM (inactive); GI50 (HCT-116): > 100 µM (inactive); GI50 (NCI-H23): 15.7 µM (inactive); GI50 (NCI-H226): > 100 µM (inactive); GI50 (Malme-3M): > 100 µM (inactive); GI50 (UACC-62): > 100 µM (inactive); GI50 (HCT-15): > 100 µM; GI50 (NCI-H522): 87.1 µM (inactive); GI50 (SF-539): > 100 µM (inactive); GI50 (NCI-H460): 52.1 µM (inactive); GI50 (CCRF-CEM): > 100 µM (inactive)

Question: `CC(C)C(Sc1nc(-c2ccccc2)c(-c2ccccc2)[nH]1)C(=O)NN` (stereo not given) was tested. Which GI50 (SF-295) did it give?
Answer: The GI50 was 74.3 µM (inactive).

Question: What about the GI50 (OVCAR-8) of the same compound?
Answer: The GI50 was > 100 µM (inactive).

Question: What about the GI50 (HL-60) of the same compound?
Answer: The GI50 was 31.6 µM (inactive).

Question: What about the GI50 (SNB-75) of the same compound?
Answer: The GI50 was > 100 µM (inactive).

Question: What about the GI50 (HCT-116) of the same compound?
Answer: The GI50 was > 100 µM (inactive).

Question: What about the GI50 (NCI-H23) of the same compound?
Answer: Its GI50 is > 100 µM (inactive).

Question: What about the GI50 (NCI-H226) of the same compound?
Answer: The GI50 was > 100 µM (inactive).

Question: And the GI50 (Malme-3M)?
Answer: The GI50 was > 100 µM (inactive).

Question: And the GI50 (HCT-15)?
Answer: Its GI50 is greater than 100 µM.

Question: And the GI50 (NCI-H522)?
Answer: The GI50 was 74.8 µM (inactive).

Question: What about the GI50 (SF-539) of the same compound?
Answer: The GI50 was > 100 µM (inactive).

Question: And the GI50 (NCI-H460)?
Answer: The GI50 was 97.5 µM (inactive).

Question: What about the GI50 (CCRF-CEM) of the same compound?
Answer: Its GI50 is 31.6 µM (inactive).

Question: For `COC(=O)c1cc(OC(C)=O)c2c(OC)ccc(OC)c2c1`, which GI50 (K562) is on record?
Answer: Its GI50 is > 100 µM (inactive).

Question: And the GI50 (SF-295)?
Answer: The GI50 was > 100 µM (inactive).

Question: And the GI50 (OVCAR-8)?
Answer: The GI50 was > 100 µM (inactive).

Question: And the GI50 (SNB-75)?
Answer: The GI50 was 39.5 µM (inactive).

Question: What about the GI50 (HCT-116) of the same compound?
Answer: Its GI50 is > 100 µM (inactive).

Question: And the GI50 (NCI-H23)?
Answer: The GI50 was > 100 µM (inactive).

Question: And the GI50 (NCI-H226)?
Answer: The GI50 was > 100 µM (inactive).

Question: And the GI50 (Malme-3M)?
Answer: The GI50 was > 100 µM (inactive).

Question: And the GI50 (UACC-62)?
Answer: Its GI50 is > 100 µM (inactive).

Question: And the GI50 (HCT-15)?
Answer: The GI50 was 64.6 µM.

Question: What about the GI50 (EKVX) of the same compound?
Answer: Its GI50 is > 100 µM (inactive).

Question: And the GI50 (SF-539)?
Answer: Its GI50 is > 100 µM (inactive).

Question: What about the GI50 (NCI-H460) of the same compound?
Answer: The GI50 was > 100 µM (inactive).

Question: Which GI50 (K562) does the source give for `C=CCCc1cc(OC)ccc1CN(C)C(C)(C)CO` here?
Answer: The GI50 was > 100 µM (inactive).

Question: What about the GI50 (SF-295) of the same compound?
Answer: The GI50 was > 100 µM (inactive).

Question: And the GI50 (OVCAR-8)?
Answer: Its GI50 is > 100 µM (inactive).

Question: And the GI50 (SNB-75)?
Answer: The GI50 was 85.7 µM (inactive).

Question: What about the GI50 (HCT-116) of the same compound?
Answer: The GI50 was > 100 µM (inactive).

Question: What about the GI50 (NCI-H23) of the same compound?
Answer: Its GI50 is > 100 µM (inactive).

Question: What about the GI50 (Malme-3M) of the same compound?
Answer: Its GI50 is > 100 µM (inactive).

Question: What about the GI50 (UACC-62) of the same compound?
Answer: The GI50 was > 100 µM (inactive).

Question: And the GI50 (HCT-15)?
Answer: Its GI50 is greater than 100 µM.

Question: And the GI50 (EKVX)?
Answer: Its GI50 is > 100 µM (inactive).

Question: What about the GI50 (SF-539) of the same compound?
Answer: Its GI50 is > 100 µM (inactive).

Question: What about the GI50 (NCI-H460) of the same compound?
Answer: The GI50 was > 100 µM (inactive).

Question: What about the GI50 (CCRF-CEM) of the same compound?
Answer: The GI50 was > 100 µM (inactive).

Question: How did the GI50 (K562) turn out when `CC(=O)NNc1nc(C)c(C(/C=C/c2ccc(Cl)cc2)=N/NC(=S)NN)s1` was run?
Answer: The GI50 was > 100 µM (inactive).

Question: What about the GI50 (SF-295) of the same compound?
Answer: Its GI50 is > 100 µM (inactive).

Question: What about the GI50 (OVCAR-8) of the same compound?
Answer: Its GI50 is > 100 µM (inactive).

Question: And the GI50 (HL-60)?
Answer: The GI50 was > 100 µM (inactive).

Question: What about the GI50 (SNB-75) of the same compound?
Answer: Its GI50 is > 100 µM (inactive).

Question: What about the GI50 (HCT-116) of the same compound?
Answer: The GI50 was > 100 µM (inactive).

Question: What about the GI50 (NCI-H23) of the same compound?
Answer: The GI50 was > 100 µM (inactive).

Question: And the GI50 (NCI-H226)?
Answer: Its GI50 is > 100 µM (inactive).

Question: What about the GI50 (Malme-3M) of the same compound?
Answer: The GI50 was > 100 µM (inactive).

Question: What about the GI50 (UACC-62) of the same compound?
Answer: Its GI50 is > 100 µM (inactive).

Question: What about the GI50 (HCT-15) of the same compound?
Answer: The GI50 was greater than 100 µM.

Question: What about the GI50 (NCI-H522) of the same compound?
Answer: Its GI50 is > 100 µM (inactive).

Question: What about the GI50 (EKVX) of the same compound?
Answer: The GI50 was > 100 µM (inactive).

Question: What about the GI50 (SF-539) of the same compound?
Answer: Its GI50 is > 100 µM (inactive).

Question: What about the GI50 (NCI-H460) of the same compound?
Answer: Its GI50 is > 100 µM (inactive).

Question: And the GI50 (CCRF-CEM)?
Answer: Its GI50 is > 100 µM (inactive).

Question: With `O=c1c2cccc3cccc(c4n1CCCN=4)c32` as the compound, how does the GI50 (K562) read?
Answer: The GI50 was > 100 µM (inactive).

Question: And the GI50 (SF-295)?
Answer: Its GI50 is > 100 µM (inactive).

Question: And the GI50 (OVCAR-8)?
Answer: Its GI50 is > 100 µM (inactive).

Question: And the GI50 (HL-60)?
Answer: Its GI50 is 47.5 µM (inactive).

Question: What about the GI50 (SNB-75) of the same compound?
Answer: Its GI50 is > 100 µM (inactive).

Question: And the GI50 (HCT-116)?
Answer: The GI50 was 31 µM (inactive).

Question: And the GI50 (NCI-H23)?
Answer: Its GI50 is > 100 µM (inactive).

Question: And the GI50 (NCI-H226)?
Answer: Its GI50 is > 100 µM (inactive).

Question: What about the GI50 (Malme-3M) of the same compound?
Answer: Its GI50 is > 100 µM (inactive).

Question: What about the GI50 (UACC-62) of the same compound?
Answer: The GI50 was > 100 µM (inactive).

Question: And the GI50 (HCT-15)?
Answer: Its GI50 is greater than 100 µM.

Question: What about the GI50 (NCI-H522) of the same compound?
Answer: The GI50 was > 100 µM (inactive).

Question: And the GI50 (EKVX)?
Answer: The GI50 was > 100 µM (inactive).

Question: And the GI50 (SF-539)?
Answer: The GI50 was > 100 µM (inactive).

Question: And the GI50 (NCI-H460)?
Answer: The GI50 was > 100 µM (inactive).

Question: What about the GI50 (CCRF-CEM) of the same compound?
Answer: The GI50 was 41.6 µM (inactive).

Question: With `CC1OC(=O)N(CCCC=C2SCCCS2)C1=O` (stereo not given) as the compound, how does the GI50 (K562) read?
Answer: The GI50 was > 100 µM (inactive).

Question: And the GI50 (SF-295)?
Answer: Its GI50 is > 100 µM (inactive).

Question: And the GI50 (OVCAR-8)?
Answer: The GI50 was > 100 µM (inactive).

Question: What about the GI50 (SNB-75) of the same compound?
Answer: The GI50 was > 100 µM (inactive).

Question: And the GI50 (HCT-116)?
Answer: The GI50 was > 100 µM (inactive).

Question: What about the GI50 (NCI-H23) of the same compound?
Answer: The GI50 was > 100 µM (inactive).

Question: And the GI50 (NCI-H226)?
Answer: Its GI50 is > 100 µM (inactive).

Question: What about the GI50 (Malme-3M) of the same compound?
Answer: Its GI50 is > 100 µM (inactive).

Question: What about the GI50 (UACC-62) of the same compound?
Answer: Its GI50 is > 100 µM (inactive).

Question: And the GI50 (HCT-15)?
Answer: The GI50 was greater than 100 µM.

Question: And the GI50 (NCI-H522)?
Answer: The GI50 was > 100 µM (inactive).

Question: And the GI50 (EKVX)?
Answer: The GI50 was > 100 µM (inactive).

Question: What about the GI50 (SF-539) of the same compound?
Answer: Its GI50 is > 100 µM (inactive).

Question: What about the GI50 (NCI-H460) of the same compound?
Answer: Its GI50 is > 100 µM (inactive).

Question: And the GI50 (CCRF-CEM)?
Answer: The GI50 was > 100 µM (inactive).
